Values quoted from earlier work in US11717481B2, “Reduction of flake-like aggregation in nanoparticulate active agent compositions” (Alkermes Pharma Ireland Limited, priority 2009, dated 2023).

solubility in water: Practically insoluble
SMILES: Cc1cnc(NC(=O)C2=C(O)c3ccccc3S(=O)(=O)N2C)s1 [Meloxicam, 4-hydroxy-2-methyl-N-(5-methyl-2-thiazolyl)-2H-1,2-benzothiazine-3-carboxamide-1,1-dioxide]
